From patent US20070213355A1, “1H-Imidazo[4,5-C]Quinoline Derivatives in the Treatment of Protein Kinase Dependent Diseases” (priority 2003, published 2007)

Biological target: T1, PDK1 (Homo sapiens, UniProt O15530)
T1 construct: release a DNA fragment encoding amino acids 52-556 of PDK1; made in house; host or cells: Sf9 insect cells (baculovirus)
T1 sequence (O15530 52-556): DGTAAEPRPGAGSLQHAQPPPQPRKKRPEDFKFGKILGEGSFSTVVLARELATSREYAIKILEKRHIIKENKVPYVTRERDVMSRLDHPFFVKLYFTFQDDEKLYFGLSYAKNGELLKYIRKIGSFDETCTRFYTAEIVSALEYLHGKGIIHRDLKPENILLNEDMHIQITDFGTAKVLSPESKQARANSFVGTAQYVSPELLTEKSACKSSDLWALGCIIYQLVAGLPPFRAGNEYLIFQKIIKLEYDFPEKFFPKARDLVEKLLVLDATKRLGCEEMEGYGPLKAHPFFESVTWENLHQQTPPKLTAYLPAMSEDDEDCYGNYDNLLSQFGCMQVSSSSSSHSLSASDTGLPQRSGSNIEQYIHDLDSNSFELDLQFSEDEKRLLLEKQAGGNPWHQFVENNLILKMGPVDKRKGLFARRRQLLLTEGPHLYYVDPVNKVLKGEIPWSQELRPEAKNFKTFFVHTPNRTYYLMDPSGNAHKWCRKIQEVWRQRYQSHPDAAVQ
Assay: PDK1 kinase inhibition, purified GST-PDK1, 33P-ATP filter assay
Assay type: biochemical
Conditions: GST-PDK1, 10.0 μM ATP, casein substrate; read-out: IC50 for PDK1 inhibition (range class)
Excerpt: PDK1 inhibition can be measured as follows: Cloning and expression: pCMV-GST-PDK1 (G Thomas, FMI Basel, as described in Pullen, N. et al., Science, 279:707-710 (1998)) is digested with EcoR1 and Sma1 to release a DNA fragment encoding amino acids 52-556 of PDK1. This is subsequently ligated to the vector pFB-G01-GST1 with compatible ends achieved by restriction digestion with EcoR1 and Stu1. The ligation reaction is transformed into XL-1 Blue bacteria and plated on selective LB agar. Resultant colonies are cultured overnight, plasmid DNA extracted and restriction analysed. Colonies that are found to contain plasmids with the correct insert are taken for large-scale plasmid preparation and subsequent sequence analysis to confirm the expected plasmid sequence.
Production of virus: Transfer vectors containing the kinase domain of PDK1 are transfected into the DH10Bac cell line (GIBCO) and the cells are plated on selective agar plates. Colonies without insertion of the fusion sequence into the viral genome (carried by the bacteria) are blue. Single, white colonies are picked and viral DNA (bacmid) is isolated from the bacteria by standard plasmid purification procedures. Sf9 cells or Sf21 cells (American Type Culture Collection) are then transfected in 25 cm^2 flasks with the viral DNA using Celifectin reagent.
Protein expression in Sf9 cells: Virus-containing media is collected from the transfected cell culture and used for infection to increase its titer. Virus-containing media obtained after two rounds of infection is used for large-scale protein expression. For large-scale protein expression 100 cm^2 round tissue culture plates are seeded with 5×10^7 cells/plate and infected with 1 mL of virus-containing media (approx. 5 MOIs). After 3 days, the cells are scraped off the plate and centrifuged at 500 rpm for 5 minutes. Cell pellets from 10-20, 100 cm^2 plates are resuspended in 50 mL of ice-cold lysis buffer (25 mM Tris-HCl, pH 7.5, 2 mM EDTA, 1% NP-40, 1 mM DTT, 1 mMP MSF). The cells are stirred on ice for 15 minutes and then centrifuged at 5,000 rpms for 20 minutes.
Purification of GST-tagged proteins: The centrifuged cell lysate is loaded onto a 2 mL glutathione-sepharose column (Pharmacia) and washed 3× with 10 mL of 25 mM Tris-HCl, pH 7.5, 2 mM EDTA, 1 mM DTT, 200 mM NaCl. The GST-tagged proteins are then eluted by 10 applications (1 mL each) of 25 mM Tris-HCl, pH 7.5, 10 mM reduced-glutathione, 100 mM NaCl, 1 mM DTT, 10% glycerol and stored at −70° C.
Measure of enzyme activity: Tyrosine protein kinase assays with purified GST-PDK1 are carried out in a final volume of 30 μL containing 100 ng of enzyme protein, 50 mM HEPES, pH 7.6, 10 mM MgCl2, 1 mM DTT, 10 μM Na3VO4, 100 μg/mL casein, 1% DMSO, 0.1 mM EGTA, pH 8.0, 10.0 μM ATP and 0.1 μCi [γ-^33P] ATP. The activity is assayed in the presence or absence of inhibitors [compounds of formula (I)] by measuring the incorporation of ^33P from [γ^33P] ATP into appropriate substrates. The assay is carried out in 96-well plates at ambient temperature for 30 minutes under conditions described below and terminated by the addition of 20 μL of 125 mM EDTA. Subsequently, 40 μL of the reaction mixture are transferred onto Immobilon-PVDF membrane (Millipore) previously soaked for 5 minutes with methanol, rinsed with water, then soaked for 5 minutes with 0.5% H3PO4 and mounted on vacuum manifold with disconnected vacuum source. After spotting all samples, vacuum is connected and each well-rinsed with 200 μL 0.5% H3PO4. Membranes are removed and washed 4× on a shaker with 1.0% H3PO4, once with ethanol. Membranes are counted after drying at ambient temperature, mounting in Packard TopCount 96-well frame, and addition of 10 μl/well of Microscint™ (Packard). IC50 values of compounds of formula (I) are calculated by linear regression analysis of the percentage inhibition of each compound in duplicate, at four concentrations (usually 0.01, 0.1, 1 and 10 μM). […]

Row | Compound | IC50
1 | NCCCc1ccc(-n2cnc3cnc4ccc(C#Cc5ccccc5)cc4c32)cc1 [Example 8, 3-[4-(8-Phenylethynyl-imidazo[4,5-c]quinolin-1-yl)-phenyl]-propylamine] | ≤ 500 nM
2 | NCCCc1ccc(-n2cnc3cnc4ccc(C#Cc5cccnc5)cc4c32)cc1 [Example 11, 3-[4-(8-Pyridin-3-ylethynyl-imidazo[4,5-c]quinolin-1-yl)-phenyl]-propylamine] | ≤ 500 nM
3 | NCCCc1ccc(-n2cnc3cnc4ccc(C#Cc5ccc6c(c5)OCO6)cc4c32)cc1 [Example 12, 3-[4-(8-Benzo[1,3]dioxol-5-ylethynyl-imidazo[4,5-c]quinolin-1-yl)-phenyl]-propylamine] | ≤ 500 nM
4 | NCCCc1ccc(-n2cnc3cnc4ccc(C#Cc5ccc(S(N)(=O)=O)cc5)cc4c32)cc1 [Example 13, 4-{1-[4-(3-Amino-propyl)-phenyl]-1H-imidazo[4,5-c]quinolin-8-ylethynyl}-benzenesulfonamide] | ≤ 500 nM
5 | Cc1nc2cnc3ccc(C#Cc4ccccc4)cc3c2n1-c1ccc(CCN)cc1 [Example 32, 2-[4-(2-Methyl-8-phenylethynyl-imidazo[4,5-c]quinolin-1-yl)-phenyl]-ethylamine] | ≤ 500 nM
6 | COc1cccc(C#Cc2ccc3ncc4nc(C)n(-c5ccc(CCN)cc5)c4c3c2)c1 [Example 33, 2-{4-[8-(3-Methoxy-phenylethynyl)-2-methyl-imidazo[4,5-c]quinolin-1-yl]-phenyl}-ethylamine] | 500 to 1000 nM
7 | Cc1nc2cnc3ccc(C#Cc4cccnc4)cc3c2n1-c1ccc(CCN)cc1 [Example 35, 2-[4-(2-Methyl-8-pyridin-3-ylethynyl-imidazo[4,5-c]quinolin-1-yl)-phenyl]-ethylamine] | ≤ 500 nM
8 | NCCCc1ccc(-n2cnc3cnc4ccc(/C=C/c5ccccc5)cc4c32)cc1 [Example 38, 3-[4-(8-trans-Styryl-imidazo[4,5-c]quinolin-1-yl)-phenyl]-propylamine] | ≤ 500 nM

The next lines start with the values.

Row | IC50 | Compound
9 | ≤ 500 nM | COc1ccc(C#Cc2ccc3ncc4ncn(-c5ccc(CCN)cc5)c4c3c2)cc1 [Example 3, 2-{4-[8-(4-Methoxy-phenylethynyl)-imidazo[4,5-c]quinolin-1-yl]-phenyl}-ethylamine]
10 | ≤ 500 nM | NCCc1ccc(-n2cnc3cnc4ccc(C#Cc5cccnc5)cc4c32)cc1 [Example 4, 2-[4-(8-Pyridin-3-ylethynyl-imidazo[4,5-c]quinolin-1-yl)-phenyl]-ethylamine]
11 | ≤ 500 nM | COc1cccc(C#Cc2ccc3ncc4ncn(-c5ccc(CCCN)cc5)c4c3c2)c1 [Example 9, 3-{4-[8-(3-Methoxy-phenylethynyl)-imidazo[4,5-c]quinolin-1-yl]-phenyl}-propylamine]
12 | ≤ 500 nM | COc1ccc(C#Cc2ccc3ncc4ncn(-c5ccc(CCCN)cc5)c4c3c2)cc1 [Example 10, 3-{4-[8-(4-Methoxy-phenylethynyl)-imidazo[4,5-c]quinolin-1-yl]-phenyl}-propylamine]
13 | 500 to 1000 nM | NCCCc1ccc(-n2cnc3cnc4cc(Cl)c(C#Cc5cccnc5)cc4c32)cc1 [Example 23, 3-[4-(7-Chloro-8-pyridin-3-ylethynyl-imidazo[4,5-c]quinolin-1-yl)-phenyl]-propylamine]
14 | 500 to 1000 nM | NCCc1ccc(-n2cnc3cnc4cc(F)c(C#Cc5ccccc5)cc4c32)cc1 [Example 26, 2-[4-(7-Fluoro-8-phenylethynyl-imidazo[4,5-c]quinolin-1-yl)-phenyl]-ethylamine]
15 | 500 to 1000 nM | COc1cccc(C#Cc2cc3c(cc2F)ncc2ncn(-c4ccc(CCN)cc4)c23)c1 [Example 27, 2-{4-[7-Fluoro-8-(3-methoxy-phenylethynyl)-imidazo[4,5-c]quinolin-1-yl]-phenyl}-ethylamine]
16 | ≤ 500 nM | COc1ccc(C#Cc2cc3c(cc2F)ncc2ncn(-c4ccc(CCN)cc4)c23)cc1 [Example 28, 2-{4-[7-Fluoro-8-(4-methoxy-phenylethynyl)-imidazo[4,5-c]quinolin-1-yl]-phenyl}-ethylamine]
17 | 500 to 1000 nM | NCCc1ccc(-n2cnc3cnc4cc(F)c(C#Cc5cccnc5)cc4c32)cc1 [Example 29, 2-[4-(7-Fluoro-8-pyridin-3-ylethynyl-imidazo[4,5-c]quinolin-1-yl)-phenyl]-ethylamine]
18 | 500 to 1000 nM | NCCc1ccc(-n2cnc3cnc4cc(F)c(C#Cc5ccc6c(c5)OCO6)cc4c32)cc1 [Example 30, 2-[4-(7-Fluoro-8-benzo[1,3]dioxol-5-ylethynyl-imidazo[4,5-c]quinolin-1-yl)-phenyl]-ethylamine]
19 | ≤ 500 nM | COc1ccc(C#Cc2ccc3ncc4nc(C)n(-c5ccc(CCN)cc5)c4c3c2)cc1 [Example 34, 2-{4-[8-(4-Methoxy-phenylethynyl)-2-methyl-imidazo[4,5-c]quinolin-1-yl]-phenyl}-ethylamine]
